Earlier results, collected in US20220395547A1, “LIPOSOMAL FORMULATIONS FOR DELIVERY OF CANNABINOIDS AND METHODS OF MAKING THEREOF” (Vella Bioscience, Inc., priority 2019, published 2022).

System: microorganisms
Settings: known from the art

## CC(O)CO (stereo not shown) [propylene glycol]
  Concentration at which antimicrobial activity is present: ≥ 20%
